Publication PMC4094369 (Biochemical and biophysical research communications, 2013)
Several values for one entry are separate records, joined by “and”; a condition that tells them apart may be missing. Identical values can stand only once. Entries after “also recorded” stand apart in the source; their conditions may differ. Counter-ions that a name gives are not always drawn. Like-named read-outs stand apart in the source and are kept apart here.

Experiments:
[1] = molecular target: T1, glutaminase (Homo sapiens, UniProt O94925); assay: Glutaminase activity of analogs; assay type: biochemical; settings: for retention of biological (glutaminase) activity: analogs of chelerythrine, in words
T1 sequence (O94925 124-669 limits assumed): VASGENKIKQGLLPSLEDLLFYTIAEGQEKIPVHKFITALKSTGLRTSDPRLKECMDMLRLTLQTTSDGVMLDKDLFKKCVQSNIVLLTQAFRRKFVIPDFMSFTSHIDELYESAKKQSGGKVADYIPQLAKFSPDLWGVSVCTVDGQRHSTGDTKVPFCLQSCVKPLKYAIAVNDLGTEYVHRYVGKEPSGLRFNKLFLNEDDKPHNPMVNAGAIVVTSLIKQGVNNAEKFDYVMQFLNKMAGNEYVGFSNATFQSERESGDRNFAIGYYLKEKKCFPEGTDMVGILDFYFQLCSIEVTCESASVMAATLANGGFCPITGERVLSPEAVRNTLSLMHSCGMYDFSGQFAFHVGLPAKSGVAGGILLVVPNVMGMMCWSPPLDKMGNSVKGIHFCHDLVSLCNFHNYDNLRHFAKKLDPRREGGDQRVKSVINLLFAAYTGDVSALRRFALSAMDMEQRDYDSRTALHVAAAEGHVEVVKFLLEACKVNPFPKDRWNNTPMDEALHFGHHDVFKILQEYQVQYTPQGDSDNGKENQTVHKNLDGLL

[2] = molecular target: T2, glutaminase (hKGAΔ1) (Homo sapiens, UniProt O94925); assay: Inactivation studies: time-dependent inhibition of glutaminase; assay type: biochemical; settings: for KI (inactivation): read-out: Ki (inactivation studies); for time- and concentration-dependence of glutaminase inactivation: in words
T2 sequence (O94925 124-669 limits assumed): T1 sequence (O94925 124-669 limits assumed)

[3] = Solubility; assay type: physicochemical; settings: in words, no data shown
[4] = molecular target: T2, glutaminase (hKGAΔ1); assay type: biochemical; settings: for Ki: Ki (competition studies), presence of glutamine; for Mode of inhibition: competition studies, average of 2–4 determinations
[5] = molecular target: T3, mouse c-type glutaminase (mGAC) (Mus musculus, UniProt D3Z7P3); assay: Glutaminase activity, Amplex UltraRed fluorescent assay; assay type: biochemical
T3 sequence (D3Z7P3 55-603 isoform D3Z7P3-2 limits assumed): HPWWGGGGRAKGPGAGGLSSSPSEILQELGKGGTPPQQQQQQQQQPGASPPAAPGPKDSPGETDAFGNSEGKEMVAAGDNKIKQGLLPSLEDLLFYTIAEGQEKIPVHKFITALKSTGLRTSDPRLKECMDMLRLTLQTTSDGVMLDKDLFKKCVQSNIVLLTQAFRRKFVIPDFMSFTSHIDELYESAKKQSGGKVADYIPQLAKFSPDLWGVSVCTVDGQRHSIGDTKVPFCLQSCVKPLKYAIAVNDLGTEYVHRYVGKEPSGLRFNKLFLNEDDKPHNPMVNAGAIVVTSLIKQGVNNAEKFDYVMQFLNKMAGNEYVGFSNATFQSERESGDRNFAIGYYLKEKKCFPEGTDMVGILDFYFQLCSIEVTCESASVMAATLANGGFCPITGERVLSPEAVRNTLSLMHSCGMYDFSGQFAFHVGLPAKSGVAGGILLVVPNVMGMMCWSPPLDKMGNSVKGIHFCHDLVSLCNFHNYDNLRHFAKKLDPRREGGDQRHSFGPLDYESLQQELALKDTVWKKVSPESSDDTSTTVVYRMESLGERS

[6] = molecular target: T4, mouse liver glutaminase (mLGA) (Mus musculus, UniProt Q571F8); assay: as above; assay type: biochemical; settings: for activity against GLS2 (mLGA) relative to GLS1 isoforms: fold less activity against GLS2 than GLS1 (hKGAΔ1, mGAC)
T4 sequence (Q571F8 15-602): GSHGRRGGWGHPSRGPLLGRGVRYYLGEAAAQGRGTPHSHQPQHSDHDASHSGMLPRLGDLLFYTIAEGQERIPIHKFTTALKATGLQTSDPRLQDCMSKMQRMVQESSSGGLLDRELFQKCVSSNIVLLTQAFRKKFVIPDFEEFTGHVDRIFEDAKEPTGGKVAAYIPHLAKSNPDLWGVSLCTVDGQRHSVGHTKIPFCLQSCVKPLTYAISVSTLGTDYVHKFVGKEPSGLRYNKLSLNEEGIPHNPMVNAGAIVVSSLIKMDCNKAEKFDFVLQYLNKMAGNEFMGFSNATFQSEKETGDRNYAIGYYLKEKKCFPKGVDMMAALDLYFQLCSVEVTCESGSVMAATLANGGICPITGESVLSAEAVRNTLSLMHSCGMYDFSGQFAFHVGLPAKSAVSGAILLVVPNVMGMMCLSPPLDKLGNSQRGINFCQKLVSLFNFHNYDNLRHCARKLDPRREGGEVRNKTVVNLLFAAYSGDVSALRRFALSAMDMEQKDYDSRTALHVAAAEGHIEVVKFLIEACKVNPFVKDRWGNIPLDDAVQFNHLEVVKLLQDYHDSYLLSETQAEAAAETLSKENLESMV

[7] = in vivo; cited from earlier work
[8] = molecular target: T5, hKGAΔ1 (GLS1) (Homo sapiens, UniProt O94925); assay: Glutaminase activity, Amplex UltraRed fluorescent assay; assay type: biochemical
T5 sequence (O94925 124-669 limits assumed): T1 sequence (O94925 124-669 limits assumed)

[9] = read-out: Avg. IC50, Table 6, analogs of apomorphine

## O=C1c2ccccc2CN1c1ccccc1 [2-Phenyl isoindolin-1-one]
[1]
  IC50: > 100000 nM

## O=c1c2ccccc2on1-c1ccccc1 [2-Phenylbenzo[d] isoxazol-3(2H)-one]
[1]
  IC50: 20000 nM

## O=c1c2ccccc2sn1-c1ccccc1 [2-Phenylbenzo[d]isothiazol-3(2H)-one]
[1]
  IC50: 20 nM

## CN1CCc2cccc3c2C1Cc1ccc(O)c(O)c1-3 (stereo not shown) [Apomorphine hydrochloride, 5,6,6a,7-tetrahydro-6-methyl-4H-dibenzo[de,g] quinoline-10,11-diol]
[2]
  kinact/KI: 13200 M⁻¹ s⁻¹
  KI (inactivation): 4 nM
[2]; rate constant of inactivation
  kinact: 5.56e-05 s⁻¹
[3]
  solubility relative to BPTES: more soluble than BPTES
[4]
  Ki: 2000 nM
  Mode of inhibition: Competitive
[4]; listed as apomorphine
  Mode of inhibition: competitive inhibition
[5]
  IC50: 1000 nM
[1]
  IC50: 600 nM
[6]
  IC50: 300 nM

## O=C(Cc1ccccc1)Nc1nnc(CCSCCc2nnc(NC(=O)Cc3ccccc3)s2)s1 [BPTES, bis-2-(5-phenylacetimido-1,2,4-thiadiazol-2-yl)ethyl sulfide]
[7]
  bioavailability: low bioavailability

## COc1ccc2cc3[n+](cc2c1OC)CCc1cc2c(cc1-3)OCO2 [Berberine chloride, 5,6-dihydro-9,10-dimethoxy-benzo[g]-[1,3] benzodioxolo[5,6-a]quinolizinium]
[1]
  IC50: > 100000 nM
  retention of biological (glutaminase) activity: did not maintain activity

## COc1ccc2c(c[n+](C)c3c4cc5c(cc4ccc23)OCO5)c1OC [Chelerythrine chloride, 1,2-dimethoxy-N-methyl[1,3]benzodioxolo[5,6-c]phenanthridinium]
[2]
  kinact/KI: 29200 M⁻¹ s⁻¹
  KI (inactivation): 30 nM
[2]; rate constant of inactivation
  kinact: 0.000958 s⁻¹
[3]
  solubility relative to BPTES: more soluble than BPTES
[4]
  Mode of inhibition: Competitive
[4]; listed as chelerythrine
  Mode of inhibition: competitive inhibition
[5]
  IC50: 70 nM
[8]
  IC50: 30 nM
[1]
  IC50: 30 nM
[6]
  IC50: 300 nM
  activity against GLS2 (mLGA) relative to GLS1 isoforms: 5 to 10 fold

## [N-]=[N+]=CC(=O)CC[C@H](N)C(=O)O [DON, 6-diazo-5-oxo-L-norleucine]
[2]
  kinact/KI: 2.53 M⁻¹ s⁻¹
  time- and concentration-dependence of glutaminase inactivation: both concentration and time of incubation dependent; also recorded: time-dependent and irreversible
  KI (inactivation): 6000 nM
[2]; rate constant of inactivation
  kinact: 1.39e-05 s⁻¹
[4]
  Mode of inhibition: Time-dependent

## O=c1c2ccccc2[se]n1-c1ccccc1 [Ebselen, 2-phenyl-1,2-benzisoselenazol-3[2H]-one]
[2]
  kinact: 0.000367 s⁻¹
  kinact/KI: 25200 M⁻¹ s⁻¹
  time- and concentration-dependence of glutaminase inactivation: dependent on both concentration and time of incubation
  KI (inactivation): ~14 nM and 14 nM
[2]; rate constant of inactivation
  kinact: 0.000364 s⁻¹
[3]
  solubility relative to BPTES: more soluble than BPTES
[4]
  Ki: ~15 nM and 15 nM
  Mode of inhibition: Mixed non-competitive
[4]; as the concentration of inhibitor was increased
  decrease in Vmax: 6 fold
[4]; listed as ebselen
  Mode of inhibition: mixed non-competitive inhibition
[5]
  IC50: 20 nM
[8]
  IC50: 8 nM
[6]
  IC50: 100 nM
  activity against GLS2 (mLGA) relative to GLS1 isoforms: 5 to 10 fold

## COc1cc2c[n+](C)c3c4cc5c(cc4ccc3c2cc1OC)OCO5 [Nitidine chloride, 2,3-dimethoxy-N-methyl[1,3]benzodioxolo[5,6-c]phenanthridinium]
[1]
  IC50: 9000 nM
[1]; listed as nitidine
  retention of biological (glutaminase) activity: retained
[1]; listed as nitidine chloride
  retention of biological (glutaminase) activity: retained biological activity

## c1cc2c(cnc3c4cc5c(cc4ccc23)OCO5)c2c1OCO2 [Norsanguinarine chloride, [1,3]-benzodioxolo[5,6-c]-1,3-dioxolo[4,5-i]phenanthridine]
[1]
  IC50: > 100000 nM
  retention of biological (glutaminase) activity: biological activity was lost

## C[n+]1cc2c3c(ccc2c2ccc4cc5c(cc4c21)OCO5)OCO3 [Sanguinarine chloride, 13-methyl-[1,3]-benzodioxolo[5,6-c]-1,3-dioxolo[4,5-i]phenanthridinium]
[1]
  IC50: 100 nM
[1]; listed as sanguinarine
  retention of biological (glutaminase) activity: retained
[1]; listed as sanguinarine chloride
  retention of biological (glutaminase) activity: retained biological activity

## CN1CCc2cccc3c2[C@@H]1Cc1ccc(O)c(O)c1-3 [S–Apomorphine hydrochloride]
[1]; [9]
  IC50: 400 nM

## R(−)-Apocodeine hydrochloride
[1]; hydroxyl replaced with methoxy
  loss of activity relative to apomorphine: 10 fold
[1]; [9]
  IC50: 4000 nM

## R(−)-Propylnorapomorphine hydrochloride
[1]; [9]
  IC50: 900 nM
